US20220125051A1, “PRE-HARVEST DESICCATION METHOD” (SYNGENTA CROP PROTECTION AG, priority 2019, published 2022)
Where two headings read alike, the source gives them in different places.

Key:
Test in all cases: Post-emergence efficacy, Method A
Format in all cases: in vivo
[1] = test system: Lolium perenne (LOLPE); conditions: Lolium perenne, post-emergence, 312 h, evaluated after 13 days
Experimental: (§1) Seeds of a variety of test species were sown in standard soil in pots. After cultivation for 14 days (post-emergence) under controlled conditions in a glasshouse (at 24/16° C., day/night; 14 hours light; 65% humidity), the plants were sprayed with an aqueous spray solution derived from the dissolution of the technical active ingredient formula (I) in a small amount of acetone and a special solvent and emulsifier mixture referred to as IF50 (11.12% Emulsogen EL360 TM+44.44% N-methylpyrrolidone+44.44% Dowanol DPM glycol ether), to create a 50 g/I solution which was then diluted to required concentration using 0.25% or 1% Empicol ESC70 (Sodium lauryl ether sulphate)+1% ammonium sulphate as diluent. The test plants were then grown in a glasshouse under controlled conditions (at 24/16° C., day/night; 14 hours light; 65% humidity) and watered twice daily. After 13 days the test was evaluated (100=total damage to plant; 0=no damage to plant).
(§2) Ipomoea hederacea (IPOHE), Euphorbia heterophylla (EPHHL), Chenopodium album (CHEAL), Amaranthus palmeri (AMAPA), Lolium perenne (LOLPE), Digitaria sanguinalis (DIGSA), Eleusine indica (ELEIN), Echinochloa crus-galli (ECHCG), Setaria faberi (SETFA)

[2] = test system: Digitaria sanguinalis (DIGSA); conditions: Digitaria sanguinalis, post-emergence, 312 h; Application Rate 500 g/Ha; evaluated after 13 days; Method A; read-out: Control of weed species after post-emergence application, DIGSA (100=total damage to plant; 0=no damage to plant)
Experimental: as §1, §2

[3] = test system: Ipomoea hederacea (IPOHE); conditions: Ipomoea hederacea, post-emergence, 312 h, Application Rate 500 g/Ha; evaluated after 13 days; Method A; read-out: Control of weed species after post-emergence application, IPOHE (100=total damage to plant; 0=no damage to plant)
Experimental: as §1, §2

[4] = test system: Setaria faberi (SETFA); conditions: Setaria faberi, post-emergence, 312 h; Application Rate 500 g/Ha; evaluated after 13 days; Method A; read-out: Control of weed species after post-emergence application, SETFA (100=total damage to plant; 0=no damage to plant)
Experimental: as §1, §2

[5] = test system: Chenopodium album (CHEAL); conditions: Chenopodium album, post-emergence, 312 h; Application Rate 500 g/Ha; evaluated after 13 days; Method A; read-out: Control of weed species after post-emergence application, CHEAL (100=total damage to plant; 0=no damage to plant)
Experimental: as §1, §2

[6] = test system: Amaranthus palmeri (AMAPA); conditions: Amaranthus palmeri, post-emergence, 312 h; Application Rate 500 g/Ha; evaluated after 13 days; Method A; read-out: Control of weed species after post-emergence application, AMAPA (100=total damage to plant; 0=no damage to plant)
Experimental: as §1, §2

[7] = test system: Echinochloa crus-galli (ECHCG); conditions: Echinochloa crus-galli, post-emergence, 312 h; Application Rate 500 g/Ha; evaluated after 13 days; Method A; read-out: Control of weed species after post-emergence application, ECHCG (100=total damage to plant; 0=no damage to plant)
Experimental: as §1, §2

[8] = test system: Eleusine indica (ELEIN); conditions: Eleusine indica, post-emergence, 312 h; Application Rate 500 g/Ha; evaluated after 13 days; Method A; read-out: Control of weed species after post-emergence application, ELEIN (100=total damage to plant; 0=no damage to plant)
Experimental: as §1, §2

[9] = Application Rate 500 g/Ha, Method A, read-out: Control of weed species after post-emergence application, LOLPE (100=total damage to plant; 0=no damage to plant)

| SMILES | pest or weed control at 500 g/ha [1, 9] | pest or weed control at 500 g/ha [2] | pest or weed control at 500 g/ha [3] | pest or weed control at 500 g/ha [4] | pest or weed control at 500 g/ha [5] | pest or weed control at 500 g/ha [6] | pest or weed control at 500 g/ha [7] | pest or weed control at 500 g/ha [8] | pest or weed control at 500 g/ha ([1]; Application rate 500 g/Ha, 100=total damage to plant, 0=no damage to plant, read-out: Control of weed species after post-emergence application, LOLPE) |
| --- | --- | --- | --- | --- | --- | --- | --- | --- | --- |
| O=S(=O)([O-])N1CCCC1C[n+]1ccc(-c2ncccn2)cn1 (centres unmarked) [Compound A222] | 20% | 90% | 70% | 80% | 60% | 80% | 70% | 60% | – |
| CCOP(=O)(O)CCC[n+]1ccc(-c2ncccn2)cn1 [Compound A232] | 20% | 90% | 0% | 80% | 90% | 100% | 100% | 50% | – |
| O=C(O)c1ccc(C[n+]2ccc(-c3ncccn3)cn2)cc1 [Compound A228] | 0% | 20% | 60% | 10% | 60% | 80% | 10% | 10% | – |
| O=C(O)CC[n+]1ccc(-c2ncccn2)cn1 [Compound A125, 3-(4-pyrimidin-2-ylpyridazin-1-ium-1-yl)propanoic acid 2,2,2-trifluoroacetate] | – | – | – | – | – | – | – | – | 90% |
| COC(=O)c1ccc(C[n+]2ccc(-c3ncccn3)cn2)cc1 [Compound A229] | 0% | 20% | 10% | 10% | 0% | 10% | 0% | 0% | – |
| Cc1cc(-c2cc[n+](CCS(=O)(=O)[O-])nc2)nc(C)n1 [Compound A231] | 60% | 80% | 60% | 60% | 90% | 100% | 50% | 60% | – |
| O=P([O-])(O)C[n+]1ccc(-c2ncccn2)cn1 [Compound A205, hydroxy-[(4-pyrimidin-2-ylpyridazin-1-ium-1-yl)methyl]phosphinate] | 40% | 80% | 80% | 80% | 60% | 80% | 60% | 60% | – |
| CCOP(=O)(C[n+]1ccc(-c2ncccn2)cn1)OCC [Compound A230, 1-(diethoxyphosphorylmethyl)-4-pyrimidin-2-yl-pyridazin-1-ium 2,2,2-trifluoroacetate] | 0% | 70% | 20% | 50% | 60% | 50% | 60% | 10% | – |
| O=P(O)(O)CCC[n+]1ccc(-c2ncccn2)cn1 [Compound A233] | 20% | 60% | 70% | 70% | 100% | 100% | 60% | 50% | – |
